Reference: patent US20230058160A1, “METABOLITE-BASED POLYMERS, MICROPARTICLES, AND NANOPARTICLES FOR IMMUNOTHERAPY AND METHODS OF TREATING A DISEASE OR DISORDER” (priority 2020, published 2023)
“Also recorded” adds a separate entry of the source.

Key:
DCs = assay: Seahorse ECAR/OCR of dendritic cells (glycolysis stress test); assay type: cell-based, C57BL/6j mice
Description: In order to test if F16BP particles can rescue DCs from exhaustion when cultured in the presence of PFK15, ECAR using Seahorse assays was utilized. Specifically, DCs were cultured with either PFK 15 (200 nM), F16BP (0.1 mg/mL) or PFK15+F16BP with or without LPS and ECAR measurements were obtained.
Specifically, immature DCs were obtained from C57BL/6j mice and cultured with PEGS (0.1 mg/mL) with or without CB-839 (30 nM or 240 nM) for 16 hours. After 16 hours of incubation, DCs were incubated in glucose free medium and ECAR and OCR values were recorded using Seahorse extracellular flux (XF) analyzer (glucose addition at 20 min).

[1] = tested on: bone marrow derived dendritic cells; assay: Dendritic cell activation by flow cytometry (MHCII, CD86, CD11c); assay type: cell-based, C57BL/6j mice; settings: for DC activation (CD86+ and MHCII+CD86+ populations in CD11c+ DCs), inhibitor alone: 200 nM PFK15 or 30 nM CB-839; for concentration that prevented the activation of DCs: 24 hours incubation, MHCII, CD86, CD11c staining
Description: In order to test the effect of PFKFB3 inhibition on DC and T cell activation, PFK15 was employed. Specifically, DCs were isolated from bone marrow of C57BL/6j mice using GM-CSF, and incubated with different concentrations of PFK15 (50, 100, 200, 400, 800, 1600 nM) for 24 hours. These cells were then stained for MHCII, CD86 and CD 11c to determine activation profile. It was observed that at 200 nM and higher concentrations of PFK15 prevented the activation of DCs (FIG. 3—200 nM shown as example).
In order to test the effect of glutaminase inhibition on DC activation, bone marrow DCs were isolated from C57BL/6j mice and cultured with different concentrations of CB-839, a clinically validated molecule (0, 15, 30, 60, 120 nM) for 24 hours. These cells were then stained for MHCII, CD86, and CD11c to determine activation profile. It was observed that at 30 nM and higher concentrations of CB-839 prevented the activation of DCs (FIG. 11—30 nM is shown as a representative example).
Specifically, DCs were cultured in the presence of CB-839 with or without PEGS (0.1 mg/mL) and with or without LPS (0.1 μg/mL) for 24 hours. Cells were then stained for MHC-II, CD86 and CD11c and analyzed using flow cytometry.

YUMM1.1 cells = assay: MTT cell viability assay, YUMM1.1 melanoma cells; assay type: cell-based, mouse
Description: (§1) In order to determine if PFK15 prevents melanoma cell growth in vitro, two different mouse melanoma cells were utilized, namely YUMM1.1 (BrafV600E/wt, Pten−/− Cdkn2−/−MHClHi) and B16F10. Specifically, YUMM1.1 and B16F10 cells were cultured with different concentrations of […], and the percentage cell viability was determined using MTT assay.
(§2) In order to determine if […] prevents melanoma cell growth in vitro, two different mouse melanoma cells were utilized, namely YUMM1.1 and B16F10. Specifically, YUMM1.1 and B16F10 cells were cultured with different concentrations of […], and the percentage cell viability was determined using MTT assay.

YUMM1.1 tumors = assay: YUMM1.1 tumor model in mice; assay type: in vivo
Description: In order to determine if the injection of F16BP particles in vivo can lead to longer survival in mice, study design shown in FIG. 7A and FIG. 7B was followed.
In order to test the efficacy of F16BP particles-based vaccines to reduce tumor growth in mice, C57BL/6j mice were utilized. Specifically, tumors were induced by injecting 0.75×10^6 cells in the back of the mice. From day 18 onwards, mice were injected with the F16BP based vaccines injected subcutaneously (0.5 mg/mouse) every 3 days (total 3 treatments—days 21, 24, 27) with PFK15 (5 mg/kg) injected every other day intraperitoneally (FIG. 7A—same study design as survival but mice euthanized day 28 for T cell analyses). Controls included PFK15 injections every alternate day, or no treatment. Mice were then sacrificed on day 26 and the tumors, draining lymph nodes, and non-draining contralateral lymph nodes were harvested.

B16F10 cells = assay: MTT cell viability assay, B16F10 melanoma cells; assay type: cell-based, mouse
Description: as §1, §2

## O=C(Cc1cccc(OC(F)(F)F)c1)Nc1ccc(CCCCc2nnc(NC(=O)Cc3ccccn3)s2)nn1 [CB-839]
DCs; 30 nM CB-839, 16 hours
  glycolysis and mitochondrial respiration in DCs (ECAR and OCR), CB-839 alone: block glycolysis and mitochondrial respiration; also recorded: do not upregulate glycolysis or mitochondrial respiration
[1]
  DC activation (CD86+ and MHCII+CD86+ populations in CD11c+ DCs), inhibitor alone: significantly reduces activation in DCs
  concentration that prevented the activation of DCs: ≥ 30 nM
YUMM1.1 cells; Mus musculus, MTT assay, percentage cell viability, read-out: IC50 to prevent proliferation of YUMM1.1 cells
  IC50: 3.75 nM

## O=C(/C=C/c1ccc2ccccc2n1)c1ccncc1 [PFK15]
YUMM1.1 tumors; F16BP vaccine 0.5 mg/mouse s.c., PFK15 5 mg/kg i.p., vs PFK15 alone and no treatment
  tumor burden / tumor growth: significant improvements in tumor burden
YUMM1.1 tumors; PFK15 5 mg/kg intraperitoneally every other day
  improvement of survival of mice: 15 days
DCs; PFK15 200 nM without LPS
  ECAR of DCs, PFK15 without LPS: even lower than the no treatment control
[1]
  DC activation (CD86+ and MHCII+CD86+ populations in CD11c+ DCs), inhibitor alone: significantly reduces activation in DCs
  concentration that prevented the activation of DCs: ≥ 200 nM
[1]; listed as PFK-15
  DC activation (CD86+ and MHCII+CD86+ populations in CD11c+ DCs), inhibitor alone: downregulated
YUMM1.1 cells
  killing of YUMM1.1 cells in vitro: able to kill
YUMM1.1 cells; MTT assay, n=6
  IC50 of YUMM1.1 melanoma cells using PFK-15 (FIG. 6B): 5000 nM
B16F10 cells
  killing of B16F10 cells in vitro: able to kill
